According to patent publication US4738983A, “Ethylenediamine and guanidine-derivatives” (Degussa aktiengesellschaft, priority 1982, dated 1988):

Tested on: carbachol spasm of the rat stomach
Assay: carbachol spasm of the rat stomach (stomach-spasmolytic effect)
Assay type: in vivo
Conditions: intraduodenal, relative to Ranitidin
Excerpt: The test substances are applied intraduodenally. In this model, the stomach-spasmolytic effect of the compound according to Example 1 is, for example 3.8 times greater than that of "Ranitidin".

CNC(=C[N+](=O)[O-])NCCSCc1ccc(CNC2C3CC4C(C3)C42)o1 (stereo not shown) [Example 1, N-[2-[[5-(tricyclo(2.2.1.0^2.6)hept-3-yl-amino-methyl)-2-furanyl]-methylthio]-ethyl]-N'-methyl-2-nitro-1,1-ethylene-diamine]
stomach-spasmolytic effect, times greater than that of Ranitidin: 3.8 times
